The text below walks through data of patent US8541603B2, “Substituted cyclopentanes or cyclopentanones as therapeutic agents” (Allergan, Inc., priority 2008, dated 2013).

This experiment deals with lashes and adjacent hairs of the eyelids. Kind of experiment: Observation of lashes of glaucoma patients treated with bimatoprost in only one eye. It counts as in vivo. Particulars: glaucoma patient treated in one eye only. From the text: In the course of treating patients having glaucoma, treatment may only be appropriate in one eye. […] The lash appearance on the lids of the treated eyes would have appeared quite attractive if it represented a bilateral phenomenon. As a result of its asymmetric nature, the long lashes on one side could be construed as disturbing from a cosmetic standpoint. A systemic examination was preformed as a result of the asymmetric phenomenon. It soon became apparent that this altered appearance was not an isolated finding. […] Definite differences could be identified to varying degrees in the lashes and adjacent hairs of all patients who were taking the drug on a unilateral basis for longer than 6 months.
The changes in the lashes were apparent on gross inspection in several patients once attention was focused on the issue. In those with light colored hair and lashes, the differences were only seen easily with the aid of the high magnification and lighting capabilities of the slit lamp biomicroscope. In the course of glaucoma follow-up examination, attention is generally immediately focused on the eye itself. As a result of the high power magnification needed only one eye is seen at a time and the eye is seen at a high enough power that the lashes are not in focus. […]

On to `CCNC(=O)CCC/C=C\C[C@@H]1[C@@H](/C=C/[C@@H](O)CCc2ccccc2)[C@H](O)C[C@@H]1O` [bimatoprost], for which the “lashes in the treated eye versus the non-treated eye” value is “longer, thicker, and fuller”.
